# Source: PubChem BioAssay (NCI)
# Where “and” joins values, the source holds several entries; their conditions need not be identical. Equal values may be shown once.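 Five concentrations, 48 hours, 96-well plates. The concentration for 50% growth inhibition is given as GI50. TGI marks complete inhibition of growth.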 Where a SMILES comes first, the peptide text is derived from it. [ ]: non-standard residue; d: D form. The star is where a group is joined. Bn2Val = CC(C)[C@@H](C(=O)*)N(Cc1ccccc1)Cc1ccccc1; NH(3,4-diMeO-benzyl) = COc1ccc(CN*)cc1OC; NMeV = CN[C@H](C(=O)O)C(C)C; dNMeA = CN[C@H](C)C(=O)O
# Columns and labels:
# Assay in all cases: NCI tumour cell line growth inhibition, 48 h
# M14 melanoma = test system: M14 melanoma
# HOP-62 NSCLC = test system: HOP-62 NSCLC
# K-562 leukemia = test system: K-562 leukemia
# IGROV1 ovarian = test system: IGROV1 ovarian
# TK-10 renal = test system: TK-10 renal
# 786-0 renal = test system: 786-0 renal
# SF-539 CNS = test system: SF-539 CNS
# KM12 colon = test system: KM12 colon
# MOLT-4 leukemia = test system: MOLT-4 leukemia
# SK-MEL-2 melanoma = test system: SK-MEL-2 melanoma
Compound,TGI (M14 melanoma),TGI (HOP-62 NSCLC),TGI (K-562 leukemia),TGI (IGROV1 ovarian),TGI (TK-10 renal),TGI (786-0 renal),TGI (SF-539 CNS),TGI (KM12 colon),TGI (MOLT-4 leukemia),TGI (SK-MEL-2 melanoma),GI50 (M14 melanoma),GI50 (HOP-62 NSCLC),GI50 (K-562 leukemia),GI50 (IGROV1 ovarian),GI50 (TK-10 renal),GI50 (786-0 renal),GI50 (SF-539 CNS),GI50 (KM12 colon),GI50 (MOLT-4 leukemia),GI50 (SK-MEL-2 melanoma)
CC1=CCCC(OC(N)=O)C1 (stereo not drawn),> 100 µM,> 100 µM,> 100 µM,> 100 µM,> 100 µM,> 100 µM,> 100 µM,> 100 µM,> 100 µM,> 100 µM,–,–,–,–,–,–,–,–,–,–
OCCNCO,> 100 µM,> 100 µM,> 100 µM,> 100 µM,> 100 µM,> 100 µM,> 100 µM,> 100 µM,> 100 µM,> 100 µM,–,–,–,–,–,–,–,–,–,–
CC1=C2[C@@H](CC1)[C@]1(C)O[C@@](C(C)C)(C[C@H]1OC(=O)[C@H](C)O)[C@H]2OC(=O)/C=C/c1ccccc1,32.5 µM,29.3 µM,49.8 µM,49.8 µM,32 µM,25.4 µM,30.9 µM,33 µM,32 µM,33 µM,13.4 µM,13.9 µM,12.5 µM,19.2 µM,16.3 µM,3.26 µM,15 µM,14.8 µM,10.7 µM,16.1 µM
CC(C)(C)C1=NC(S)NC(CCC(=O)Nc2ccccc2[N+](=O)[O-])=C1 (stereo not drawn),> 100 µM,> 100 µM,> 100 µM,> 100 µM,> 100 µM,> 100 µM,> 100 µM,> 100 µM,> 100 µM,> 100 µM,–,–,–,–,–,–,–,–,–,–
"COc1ccc(CNC(=O)[C@@H](C)N(C)C(=O)[C@@H]2CCCN2C(=O)[C@H](C(C)C)N(C)C(=O)[C@@H](NC(=O)[C@H](C(C)C)N(Cc2ccccc2)Cc2ccccc2)C(C)C)cc1OC (Bn2Val-V[NMeV]P[dNMeA]-{NH(3,4-diMeO-benzyl)})",16.9 µM and > 100 µM,16.5 µM and 33.4 µM,50 µM and > 100 µM,13.6 µM and 28.3 µM,50 µM and 61.6 µM,21.3 µM and 28.3 µM,16.6 µM and 17.8 µM,30 µM and 27.4 µM,23.9 µM and 11.7 µM,15.1 µM and 15 µM,63.2 µM,14.7 µM,6.52 µM,11.1 µM,–,11.4 µM,5.23 µM,–,0.475 µM,4.38 µM
O=C1/C(=C/c2ccccc2)CN(C(=O)Oc2ccc(Cl)cc2)C/C1=C\c1ccccc1,3.48 µM,14.7 µM,5.79 µM,10.2 µM,14.9 µM,3.96 µM,5.92 µM,3.28 µM,8.63 µM,16.5 µM,–,–,–,–,–,–,–,–,–,–
COc1cc([C@@H]2c3cc4c(cc3[C@@H](NC(=O)c3cccc([N+](=O)[O-])c3)C3COC(=O)[C@@H]32)OCO4)cc(OC)c1O (stereo partly drawn),> 19.8 µM,0.121 µM,> 100 µM,> 37.4 µM,9.94 µM,0.833 µM,1.33 µM,10.8 µM,> 100 µM,7.23 µM,–,–,–,–,–,–,–,–,–,–
COC(=O)c1c2c(c(C)[n+]([O-])c1C)C(=O)C=CC2=O,3.45 µM,2.27 µM,36 µM,4.25 µM,7.74 µM,4.51 µM,3.2 µM,4.77 µM,4.65 µM,3.99 µM,1.78 µM,0.744 µM,3.04 µM,1.74 µM,2.74 µM,2.06 µM,1.8 µM,1.99 µM,1.69 µM,1.89 µM
C[C@@H]1Cc2c([nH]c3ccccc23)[C@@H](c2c(F)cc(/C=C/C(=O)O)cc2F)N1CC(C)(C)F,34.5 µM,31.7 µM,46.1 µM,37.2 µM,39.4 µM,28.1 µM,32.4 µM,28.7 µM,34.9 µM,32.8 µM,14 µM,15.5 µM,13.6 µM,16.4 µM,15.9 µM,14.2 µM,14.5 µM,11 µM,11.2 µM,13.8 µM
Cn1c(-c2nonc2N)nc2cnccc21,> 25 µM,> 25 µM,> 25 µM,> 25 µM,> 25 µM,> 25 µM,> 25 µM,> 25 µM,> 25 µM,> 25 µM,> 25 µM,> 25 µM,> 25 µM,> 25 µM,11.3 µM,> 25 µM,12.2 µM,> 25 µM,> 25 µM,> 25 µM
CC1(C)N=C(N)N=C(N)N1c1ccc(CCCCc2ccc(S(=O)(=O)F)cc2Cl)c(Cl)c1,> 382 µM,47.2 µM,64.3 µM,106 µM,231 µM,76.9 µM,13.9 µM,9.77 µM,10.6 µM,20.3 µM,–,–,–,–,–,–,–,–,–,–
CN(C)c1ccc(/C=C2\C[N+](C)(C)C/C(=C\c3ccc(N(C)C)cc3)C2=O)cc1,74.8 µM,> 96.7 µM,31.3 µM,18 µM,> 100 µM,85.3 µM,49.9 µM,19.1 µM,59.3 µM,36.1 µM,–,–,–,–,–,–,–,–,–,–
NS(=O)(=O)c1ccc(-n2nc(-c3ccc(Br)cc3)ccc2=O)cc1,> 10 µM,> 10 µM,> 10 µM,> 10 µM,> 10 µM,> 10 µM,> 10 µM,> 10 µM,> 10 µM,> 10 µM,> 10 µM,> 10 µM,4.85 µM,> 10 µM,> 10 µM,> 10 µM,> 10 µM,> 10 µM,> 10 µM,> 10 µM
Cn1cc(C2=C(c3ccc(OC[C@@H](O)CO)cc3)C(=O)NC2=O)c2ccccc21,> 25 µM,> 25 µM,> 25 µM,> 25 µM,> 25 µM,> 25 µM,> 25 µM,> 25 µM,> 25 µM,> 25 µM,> 25 µM,> 25 µM,> 25 µM,> 25 µM,> 25 µM,> 25 µM,> 25 µM,> 25 µM,> 25 µM,> 25 µM
O=C1NC(=O)C2C(=O)NC(=O)C1C2(c1ccccc1)c1ccc(Cl)cc1 (stereo not drawn),> 100 µM,> 100 µM,> 100 µM,> 100 µM,> 100 µM,> 100 µM,> 100 µM,> 100 µM,> 100 µM,> 100 µM,–,–,–,–,–,–,–,–,–,–
